From patent US9974778B2, “Substituted pyridinones as MGAT2 inhibitors” (BRISTOL-MYERS SQUIBB COMPANY, priority 2014, dated 2018) come the findings set out here.

The test addresses T1, Human MGAT-2 (Homo sapiens, UniProt Q3SYC2).
T1 construct: made in house; host or cells: Sf9 cells (membrane preparation)
Nature of the test: MGAT LCMS Assay. To be noted: human MGAT2 membranes expressed in Sf9 cells; 100 μM 2-oleoylglycerol, 15 μM oleoyl-coenzyme A; read-out: h-MGAT LCMS IC50. The format is biochemical. In outline:
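Robotic enzyme reaction shaken 10 min, quenched with ice-cold methanol containing 1 μg/mL 1,2-distearoyl-rac-glycerol internal standard. Diolein product measured by LC/MS (C8 column, 65° C, APCI(+) triple quad). IC50 derived from diolein/internal standard peak area ratio.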

T1 sequence (Q3SYC2 whole entry): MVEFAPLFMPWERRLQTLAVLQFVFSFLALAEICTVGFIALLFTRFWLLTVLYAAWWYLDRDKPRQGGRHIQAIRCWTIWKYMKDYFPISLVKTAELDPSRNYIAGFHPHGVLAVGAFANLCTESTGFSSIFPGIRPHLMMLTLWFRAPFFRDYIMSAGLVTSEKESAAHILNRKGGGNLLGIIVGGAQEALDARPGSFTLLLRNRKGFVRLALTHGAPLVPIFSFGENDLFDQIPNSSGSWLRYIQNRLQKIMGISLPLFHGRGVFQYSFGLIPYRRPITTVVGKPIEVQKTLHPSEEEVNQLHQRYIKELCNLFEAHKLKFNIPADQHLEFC

Consider `CCOc1cc(OCCCC(F)(F)F)ccc1-c1cc(-c2ccc(C)cc2)c(C(=O)NS(=O)(=O)C2CC2)c(=O)[nH]1` [Example 126, N-(Cyclopropylsulfonyl)-6-(2-ethoxy-4-(4,4,4-trifluorobutoxy)phenyl)-2-oxo-4-(p-tolyl)-1,2-dihydropyridine-3-carboxamide], for which the IC50 (in general, the concentration that inhibits the measured activity by half) was found to be 43 nM.

Turning to `CCc1ccc(-c2c(Cl)c(-c3ccc(OCCCC(F)(F)F)cc3)[nH]c(=O)c2-c2nnn[nH]2)s1` [Example 128, 5-Chloro-4-(5-ethylthiophen-2-yl)-3-(1H-tetrazol-5-yl)-6-(4-(4,4,4-trifluorobutoxy)phenyl)pyridin-2(1H)-one], the IC50 turned out to be 83 nM. The same measure for `CCn1ccc(-c2cc(-c3ccc(OCCCC(F)(F)F)cc3C(F)(F)F)[nH]c(=O)c2-c2nn[nH]n2)n1` [Example 129, 4-(1-Ethyl-1H-pyrazol-3-yl)-3-(2H-tetrazol-5-yl)-6-(4-(4,4,4-trifluorobutoxy)-2-(trifluoromethyl)phenyl)pyridin-2(1H)-one]: 51 nM.

For the molecule `O=c1[nH]c(-c2ccc(OCCCCCC(F)(F)F)cc2F)cc(-c2ccc(C(F)F)cc2)c1-c1nnn[nH]1` [Example 130, 4-(4-(Difluoromethyl)phenyl)-6-(2-fluoro-4-((6,6,6-trifluorohexyl)oxy)phenyl)-3-(1H-tetrazol-5-yl)pyridin-2(1H)-one], the IC50 was found to be 4 nM.

As for `Cc1ccc(-c2cc(-c3ccc(OCCCCCC(F)(F)F)cc3Cl)[nH]c(=O)c2C(=O)Nc2ccc(OC(F)(F)F)cc2)cc1` [Example 131, 6-(2-Chloro-4-((6,6,6-trifluorohexyl)oxy)phenyl)-2-oxo-4-(p-tolyl)-Ar-(4-(trifluoromethoxy)phenyl)-1,2-dihydropyridine-3-carboxamide], the half-maximal inhibitory concentration (IC50) is 7 nM.

Regarding `Cc1ccc(-c2cc(-c3ccc(OCCCC(F)(F)F)cc3Cl)[nH]c(=O)c2C(=O)Nc2ccc(OC(F)(F)F)cc2)cc1` [Example 132, 6-(2-Chloro-4-(4,4,4-trifluorobutoxy)phenyl)-2-oxo-4-(p-tolyl)-N-(4-(trifluoromethoxy)phenyl)-1,2-dihydropyridine-carboxamide], the IC50 is 14 nM.

As to `CCc1cnc(-c2cc(-c3ccc(OCCCC(F)(F)F)cc3F)[nH]c(=O)c2-c2nnn[nH]2)s1` [Example 133, 4-(5-Ethylthiazol-2-yl)-6-(2-fluoro-4-(4,4,4-trifluorobutoxy)phenyl)-3-(1H-tetrazol-5-yl)pyridin-2(1H)-one], the IC50 is 2 nM. Consider `Cc1ccc(-c2cc(-c3ccc(OCCCCCC(F)(F)F)cc3C(F)(F)F)[nH]c(=O)c2-c2nnn[nH]2)cc1` [Example 134, 3-(2H-Tetrazol-5-yl)-4-(p-tolyl)-6-(4-((6,6,6-trifluorohexyl)oxy)-2-(trifluoromethyl)phenyl)pyridin-2(1H)-one], for which the IC50 came out at 3 nM. The same measure for `CCc1ccc(-c2cc(-c3ccc(OCCCC(F)(F)F)cc3F)[nH]c(=O)c2C(=O)NS(C)(=O)=O)s1` [Example 135, 4-(5-Ethylthiophen-2-yl)-6-(2-fluoro-4-(4,4,4-trifluorobutoxy)phenyl)-N-(methylsulfonyl)-2-oxo-1,2-dihydropyridine-3-carboxamide]: 5 nM; for `CCOc1cc(OCCCC(F)(F)F)ccc1-c1cc(-c2ncc(C3CC3)s2)c(-c2nnn[nH]2)c(=O)[nH]1` [Example 137, 4-(5-Cyclopropylthiazol-2-yl)-6-(2-ethoxy-4-(4,4,4-trifluorobutoxy)phenyl)-3-(1H-tetrazol-5-yl)pyridin-2(1H)-one]: 5 nM; for `O=C(NS(=O)(=O)C1CC1)c1c(-c2ncc(C3CC3)s2)cc(-c2ccc(OCCCC(F)(F)F)cc2F)[nH]c1=O` [Example 138, N-(Cyclopropylsulfonyl)-4-(5-cyclopropylthiazol-2-yl)-6-(2-fluoro-4-(4,4,4-trifluorobutoxy)phenyl)-2-oxo-1,2-dihydropyridine-3-carboxamide]: 13 nM. The same measure for `CCc1ccc(-c2cc(-c3ccc(OCCCC(F)(F)F)cc3Cl)[nH]c(=O)c2-c2nnn[nH]2)s1` [Example 139, 6-(2-Chloro-4-(4,4,4-trifluorobutoxy)phenyl)-4-(5-ethylthiophen-2-yl)-3-(1H-tetrazol-5-yl)pyridin-2(1H)-one]: 4 nM; for `CCc1ccc(-c2cc(-c3ccc(OCCCC(F)(F)F)cc3Cl)[nH]c(=O)c2C(=O)NS(C)(=O)=O)s1` [Example 140, 6-(2-Chloro-4-(4,4,4-trifluorobutoxy)phenyl)-4-(5-ethylthiophen-2-yl)-N-(methylsulfonyl)-2-oxo-1,2-dihydropyridine-3-carboxamide]: 30 nM. `CS(=O)(=O)NC(=O)c1c(-c2ncc(C3CC3)s2)cc(-c2ccc(OCCCC(F)(F)F)cc2F)[nH]c1=O` [Example 141, 4-(5-Cyclopropylthiazol-2-yl)-6-(2-fluoro-4-(4,4,4-trifluorobutoxy)phenyl)-N-(methylsulfonyl)-2-oxo-1,2-dihydropyridine-3-carboxamide]: the IC50 amounted to 7 nM.

Regarding `CCc1ccc(-c2cc(-c3ccc(/C=C/C4CC4)cc3)[nH]c(=O)c2-c2nn[nH]n2)s1` [Example 142, (E)-6-(4-(2-Cyclopropylvinyl)phenyl)-4-(5-ethylthiophen-2-yl)-3-(2H-tetrazol-5-yl)pyridin-2(1H)-one], the IC50 stood at 4 nM. Consider `CCOc1cc(OCCCC(F)(F)F)ccc1-c1cc(-c2ncc(C3CC3)s2)c(C(=O)NS(C)(=O)=O)c(=O)[nH]1` [Example 143, 4-(5-Cyclopropylthiazol-2-yl)-6-(2-ethoxy-4-(4,4,4-trifluorobutoxy)phenyl)-N-(methylsulfonyl)-2-oxo-1,2-dihydropyridine-3-carboxamide], for which the IC50 stood at 52 nM. Under `CCc1ccc(-c2cc(-c3ccc(C4=CCC(C)(C)CC4)cc3)[nH]c(=O)c2-c2nn[nH]n2)s1` [Example 144, 6-(4′,4′-Dimethyl-2′,3′,4′,5′-tetrahydro-[1,1′-biphenyl]-4-yl)-4-(5-ethylthiophen-2-yl)-3-(2H-tetrazol-5-yl)pyridin-2(1H)-one] stands 24 nM; under `CCc1ccc(-c2cc(-c3ccc(CCC4CC4)cc3)[nH]c(=O)c2-c2nn[nH]n2)s1` [Example 145, 6-(4-(2-Cyclopropylethyl)phenyl)-4-(5-ethylthiophen-2-yl)-3-(2H-tetrazol-5-yl)pyridin-2(1H)-one], 10 nM; under `CCc1cnc(-c2cc(-c3ccc(OCCCC(F)(F)F)cc3F)[nH]c(=O)c2C(=O)NS(C)(=O)=O)s1` [Example 146, 4-(5-Ethylthiazol-2-yl)-6-(2-fluoro-4-(4,4,4-trifluorobutoxy)phenyl)-N-(methylsulfonyl)-2-oxo-1,2-dihydropyridine-3-carboxamide], 29 nM. The same measure for `CCc1cnc(-c2cc(-c3ccc(/C=C/C4CC4)cc3)[nH]c(=O)c2-c2nn[nH]n2)s1` [Example 147, (E)-6-(4-(2-Cyclopropylvinyl)phenyl)-4-(5-ethylthiazol-2-yl)-3-(2H-tetrazol-5-yl)pyridin-2(1H)-one]: 7 nM. Under `CCc1cnc(-c2cc(-c3ccc(OCCCCCC(F)(F)F)cc3F)[nH]c(=O)c2-c2nnn[nH]2)s1` [Example 148, 4-(5-Ethylthiazol-2-yl)-6-(2-fluoro-4-((6,6,6-trifluorohexyl)oxy)phenyl)-3-(1H-tetrazol-5-yl)pyridin-2(1H)-one] stands 0.8 nM.
